Assays:
[1] = Reaction specificity of TQ Green: cysteine; conditions: 0.1 mM cysteine, within 2 hours, PBS pH 7.4
Description: For clarity, data points for TQ Green reaction with BSA, Cysteine, and PBS were offset by 0.1 units from each other on the y axis. Data points represent the absorbance of reaction mixtures of TQ Green (32 μM) with cysteine (100 μM, blue), BSA (5 mM, green), GSH (20 mM red) and water (black) in PBS (pH 7.4) at 480 nm, the maximum absorption wavelength for TQ Green.
Free cysteine and the surface exposed cysteine residues on proteins inside cells could potentially compete with GSH in TQ Green reactions. It is known that, in contrast to the 1-10 mM concentrations of GSH inside cells, cysteine concentrations are in the range of 0.1-1 mM, approximately an order of magnitude lower than GSH levels. Assuming cysteine and GSH have similar reactivities, the presence of cysteine will introduce an error no more than 10%.

cells = assay: Confocal imaging of probe interacting with cells (cell penetration); assay type: cell-based
Description: FIG. 10 provides confocal images at 488 nm channel of TQ Green (acid form, FIG. 10A), and TQ Green-AM (ester form, FIG. 10B) interacting with cells.
All cell lines used in this study were purchased from American Type Culture Collection (ATCC) and grown in DMEM (Gibco, 11965) media supplemented with 10% FBS and 1% 1003 Pen Strep (Gibco). Cells were cultured under a controlled atmosphere (37° C., 5% CO2). Glass dishes were used for cell culture due to confocal scanning requirements. Cells were treated with TQ Green-AM (20 nM-1 μM with 0.0025-1% DMSO in PBS) for 30 minutes, followed by two washing steps with tryptan blue and PBS prior to imaging. Fluorescent images were acquired with 405 nm laser/430-470 nm filter and 488 nm laser/575-620 nm filter. All the microscope settings were kept consistent in each experiment.

## CCN(CC)c1ccc2cc(/C=C/C(=O)c3ccc(C(=O)O)cc3Br)c(=O)oc2c1 [TQ Green]
[1]
  Reaction with cysteine: did not observe appreciable reactions
cells
  Cell penetration (confocal, 488 nm channel): trapped in the membrane
